Measurements taken from the SangsterLogP compilation.

Test: method code SF-AS, from PMID: 4083029
Settings: pH 5.0

Compound	logD
Cc1ccn2c(=O)c3c(nc2c1)CCCCC3	1.86
O=c1c2c(nc3n1CCCCCC3)CCCCC2	2.43
O=c1c2c(nc3n1CCCCCC3)CCCC2	2.13
O=c1c2c(nc3ccccn13)CCCCCC2	2.29
O=c1c2c(nc3n1CCCCC3)CCCCCC2	2.41
O=c1c2c(nc3ccccn13)CCCCC2	1.63

The next lines start with the values.

logD	Compound
1.59	Cc1cccc2nc3n(c(=O)c12)CCC3
2.44	Cc1ccc2c(=O)n3c(nc2c1)CCCCC3
2.07	Cc1ccc2nc3c(c(=O)n2c1)CCCCC3
1.61	O=c1c2c(nc3n1CCCCCC3)CCC2
1.91	Cc1cccc2nc3c(c(=O)n12)CCCCC3
1.6	O=c1c2c(nc3n1CCCC3)CCCCC2
1.49	O=c1c2ccccc2nc2n1CCCC2
